Patent US4689426A, “5-alkylidene-2-halo-4-substituted-2-cyclopentenone and process for production thereof” (Teijin Limited, priority 1983, dated 1987)
Values after ≈ are worked out from the molar mass of the structure shown.

What was measured:
L1210 leukemia cells = experiment: Inhibition of proliferation of L1210 leukemia cells; format: cell-based; conditions: Mus musculus, L1210, 96 h; 4 days at 37° C., trypan blue count of surviving cells
Experimental: Measurement of the action of inhibiting proliferation of L1210 leukemia cells
L1210 leukemia cells were added to an RPMI medium containing 10% FCS (fetal calf serum), and the concentration of the cells was adjusted to 1×10^5 cells/ml. Each of the test compounds shown in Table 1 was dissolved in 99.5% ethanol. Prior to use, the final concentration of the ethanol solution was adjusted to less than 0.1%, and it was added to the culture medium. The culture medium was then maintained at 37° C. in a stationary condition for 4 days. After the cultivation, the number of surviving cells was measured by dyeing with trypan blue. As a control, 0.1% ethanol was used. A dose-response curve was plotted from the ratios of proliferation against the control, and IC50 was determined.

HSV type-1 (KOS) = experiment: Inhibition of herpes simplex virus replication in human embryo lung cells, plaque assay on Vero cells; format: cell-based, herpes simplex virus type-1 (strain KOS); conditions: 4 μg/ml, 24 hrs. pretreatment and 24 hrs. after infection; m.o.i. 1; control 1.4 × 10^8; mean of at least three wells
Experimental: (§1) Measurement of inhibitory activities on herpes simplex virus replication
(§2) To evaluate the inhibitory effect of 2-chloro-4-(3,7-dimethyl-6-octenyl)-5-(6-carbomethoxyhexylidene)-2-cyclopentenone against herpes simplex virus [HSV] replication in vitro, human embryo lung cells [HELR66] were grown in 6-well Falcon plates in Eagle's minimal essential medium [MEM] supplemented with 5 percent fetal calf serum [CS] and antibiotics.
(§3) The test compound was dissolved in absolute ethanol and diluted to the appropriate concentrations with culture medium just before use. The cells were incubated at 37° C. in a humidified atmosphere containing 5 percent CO2 and 95 percent air. Confluent monolayers of the cells were treated with 4 μg/ml of the test compound for 24 hrs. before HSV infection. The test compound pretreated cells were infected with HSV type-1 (strain KOS) or HSV type-2 (strain YS-4) at a m.o.i. of 1. After 1 hr. of incubation at 37° C., the cells were further incubated for 24 hrs. with MEM containing with 2 percent CS, antibiotics and 4 μg/ml the test compound. Control media contained the identical concentration of ethanol. HSV infected HEL-R66 cells were harvested with a rubber policeman 24 hrs. after HSV inoculation and stored at -70° C. Titrations were performed by plaque assays on Vero cells.

HSV type-2 (YS-4) = experiment: as above; format: cell-based, herpes simplex virus type-2 (strain YS-4); conditions: 4 μg/ml, 24 hrs. pretreatment and 24 hrs. after infection; m.o.i. 1; control 1.4 × 10^8; mean of at least three wells
Experimental: as §1, §2, §3

[1] = test system: Ehrlich ascites carcinoma cells; experiment: Antitumor effect on Ehrlich ascites carcinoma, survival of mice; format: in vivo, ICR mice; conditions: over the control
Experimental: Measurement of the antitumor effect on Ehrich ascites carcinoma
1×10^5 Ehrlich ascites carcinoma cells were intraperitoneally administered to ICR mice. After the lapse of 24 hours, 30 mg/kg/day or 20 mg/kg/day of 2-chloro-4-butyl-5-(6-carboxyhexylidene)-2-cyclopentenone (E-form) was intraperitoneally administered to the mice for 5 days. The periods of survival of these animals were examined.

B. subtilis ATCC 6633 = experiment: Antimicrobial activity, serial two-fold dilution; format: cell-based; conditions: Bacillus subtilis, ATCC6633; Gram (+); heart infusion agar
Experimental: (§4) Measurement of the antimicrobial activity against Gram positive and negative bacterium
(§5) One loopful of cell suspension (10^8 cells/ml) was inoculated on heart infusion agar medium containing various levels of a compound of this invention (2-chloro-4-n-butyl-5-(6-carboxyhexylidene)-2-cyclopentenone). The minimum inhibitory concentrations (MIC) was determined by a standard serial two-fold dilution method.

P. aeruginosa IFO 3445 = experiment: Antimicrobial activity, serial two-fold dilution; format: cell-based; conditions: Pseudomonas aeruginosa, IFO3445; Gram (-); heart infusion agar
Experimental: as §4, §5

P. vulgaris H × 19 = experiment: Antimicrobial activity, serial two-fold dilution; format: cell-based; conditions: Proteus vulgaris; Gram (-); heart infusion agar
Experimental: as §4, §5

S. aureus MS 353 = experiment: Antimicrobial activity, serial two-fold dilution; format: cell-based; conditions: Staphylococcus aureus, MS353; Gram (+); heart infusion agar
Experimental: as §4, §5

[2] = test system: L1210 mouse leukemia cells; conditions: Biochem. Biophys. Res. Commun., 105, 956 (1982); cited from earlier work

Question: Which IC50 (L1210 leukemia cells) does the source give for `CCCCC1C=C(Br)C(=O)/C1=C/CCCCCC(=O)OC` (single isomer, unassigned) [2-bromo-4-butyl-5-(6-methoxycarbonylhexylidene)-2-cyclopentenone] here?
Answer: Its IC50 is 0.2 µg/mL (≈ 0.56 µM).

Question: With `CCCCC1C=C(Br)C(=O)/C1=C\CCCCCC(=O)OC` (single isomer, unassigned) [2-bromo-4-butyl-5-(6-methoxycarbonylhexylidene)-2-cyclopentenone] as the molecule, how does the IC50 (L1210 leukemia cells) read?
Answer: The IC50 was 0.1 µg/mL (≈ 0.28 µM).

Question: Which IC50 (L1210 leukemia cells) does the source give for `CCCCC1C=C(Cl)C(=O)/C1=C/CCCCCC(=O)OC` (single isomer, unassigned) [2-chloro-4-butyl-5-(6-methoxycarbonylhexylidene)-2-cyclopentenone] here?
Answer: The IC50 was 0.1 µg/mL (≈ 0.32 µM).

Question: Which IC50 (L1210 leukemia cells) does the source give for `CCCCC1C=C(Cl)C(=O)/C1=C\CCCCCC(=O)OC` (single isomer, unassigned) [2-chloro-4-butyl-5-(6-methoxycarbonylhexylidene)-2-cyclopentenone] here?
Answer: Its IC50 is under 0.3 µg/mL.

Question: For `COC(=O)CCCCCC=C1C(=O)C(Cl)=CC1CCC(C)CCC=C(C)C` (stereo not shown) [2-chloro-4-(3,7-dimethyl-6-octenyl)-5-(6-carbomethoxyhexylidene)-2-cyclopentenone], which Virus yield (HSV type-1 (KOS)) is on record?
Answer: The Virus yield was 3.1 × 10^4 pfu/ml.

Question: And the Virus yield (HSV type-2 (YS-4))?
Answer: Its Virus yield is 5.4 × 10^4 pfu/ml.

Question: With `CCCCC1C=C(Cl)C(=O)/C1=C/CCCCCC(=O)O` (stereo not shown) [2-chloro-4-butyl-5-(6-carboxyhexylidene)-2-cyclopentenone] as the molecule, how does the “increase of life span (ILS%)” value ([1]; 20 mg/kg/day i.p. for 5 days) read?
Answer: The value was 40.2%.

Question: What about the “increase of life span (ILS%)” value ([1]; 30 mg/kg/day i.p. for 5 days) of the same molecule?
Answer: The value was 30.7%.

Question: And the MIC (B. subtilis ATCC 6633)?
Answer: Its MIC is 6.24 µg/mL (≈ 20.9 µM).

Question: What about the MIC (P. aeruginosa IFO 3445) of the same molecule?
Answer: The MIC was 100 µg/mL (≈ 335 µM).

Question: And the MIC (P. vulgaris H × 19)?
Answer: Its MIC is 25 µg/mL (≈ 83.7 µM).

Question: And the MIC (S. aureus MS 353)?
Answer: Its MIC is 100 µg/mL (≈ 335 µM).

Question: Which “IC50 of PGD2 on L1210 cells” value [2] does the source give for `CCCCC[C@H](O)/C=C/[C@H]1C(=O)C[C@H](O)[C@@H]1C/C=C\CCCC(=O)O` [PGD2] here?
Answer: The value was 2.4 micrograms/ml.
